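Exposure lasted 48 hours, with cells grown in 96-well plates and compounds tested at five concentrations. Here, GI50 denotes the concentration required for 50% inhibition of growth. TGI denotes the concentration required for complete inhibition of growth.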
Tests used:
Test in all cases: inhibition of tumour cell growth, NCI panel, 48 h
A549 NSCLC = tested on: A549 NSCLC
786-0 renal = tested on: 786-0 renal
MOLT-4 leukemia = tested on: MOLT-4 leukemia
NCI-H460 lung = tested on: NCI-H460 lung
UO-31 renal = tested on: UO-31 renal
EKVX NSCLC = tested on: EKVX NSCLC
HCT-116 colon = tested on: HCT-116 colon
SK-OV-3 ovarian = tested on: SK-OV-3 ovarian
OVCAR-4 ovarian = tested on: OVCAR-4 ovarian
OVCAR-3 ovarian = tested on: OVCAR-3 ovarian
RPMI-8226 leukemia = tested on: RPMI-8226 leukemia
TK-10 renal = tested on: TK-10 renal
NCI-H23 lung = tested on: NCI-H23 lung
HS 578T breast = tested on: HS 578T breast
HT29 colon = tested on: HT29 colon
HOP-92 NSCLC = tested on: HOP-92 NSCLC
RXF 393 renal = tested on: RXF 393 renal
LOX IMVI melanoma = tested on: LOX IMVI melanoma
NCI-H226 lung = tested on: NCI-H226 lung
UACC-62 melanoma = tested on: UACC-62 melanoma
K-562 leukemia = tested on: K-562 leukemia
HOP-62 NSCLC = tested on: HOP-62 NSCLC
IGROV1 ovarian = tested on: IGROV1 ovarian
U251 CNS = tested on: U251 CNS
SW-620 colon = tested on: SW-620 colon
SN12C renal = tested on: SN12C renal
SK-MEL-28 melanoma = tested on: SK-MEL-28 melanoma
OVCAR-8 ovarian = tested on: OVCAR-8 ovarian
SK-MEL-2 melanoma = tested on: SK-MEL-2 melanoma
PC-3 prostate = tested on: PC-3 prostate
ACHN renal = tested on: ACHN renal
CAKI-1 renal = tested on: CAKI-1 renal
MALME-3M melanoma = tested on: MALME-3M melanoma
CCRF-CEM leukemia = tested on: CCRF-CEM leukemia
SK-MEL-5 melanoma = tested on: SK-MEL-5 melanoma
M14 melanoma = tested on: M14 melanoma
HCC-2998 colon = tested on: HCC-2998 colon
BT-549 breast = tested on: BT-549 breast
MDA-MB-435 = tested on: MDA-MB-435
KM12 colon = tested on: KM12 colon
SF-539 CNS = tested on: SF-539 CNS
T-47D breast = tested on: T-47D breast
OVCAR-5 ovarian = tested on: OVCAR-5 ovarian
A498 renal = tested on: A498 renal
SR leukemia = tested on: SR leukemia
SF-268 CNS = tested on: SF-268 CNS
UACC-257 melanoma = tested on: UACC-257 melanoma
MDA-MB-231 breast = tested on: MDA-MB-231 breast
SNB-19 CNS = tested on: SNB-19 CNS
NCI-H522 lung = tested on: NCI-H522 lung
MCF7 breast = tested on: MCF7 breast
HL-60(TB) leukemia = tested on: HL-60(TB) leukemia
HCT-15 colon = tested on: HCT-15 colon
DU-145 prostate = tested on: DU-145 prostate
SNB-75 CNS = tested on: SNB-75 CNS
SF-295 CNS = tested on: SF-295 CNS
NCI/ADR-RES ovarian = tested on: NCI/ADR-RES ovarian
COLO 205 colon = tested on: COLO 205 colon

## C#CC#CC#CC#CC#CC#CC#CC#CC[C@@H]1OC[C@H](COC(=O)O[C@@H](C(=O)O[C@H]2C[C@@]3(O)[C@@H](OC(=O)c4ccccc4)[C@@H]4[C@]5(OC(C)=O)CO[C@@H]5C[C@H](O)[C@@]4(C)C(=O)[C@H](OC(C)=O)C(=C2C)C3(C)C)[C@@H](NC(=O)c2ccccc2)c2ccccc2)O1
A549 NSCLC
  GI50: 1.42 µM
  TGI: > 25 µM
786-0 renal
  GI50: > 25 µM
  TGI: > 25 µM
MOLT-4 leukemia
  GI50: 1.85 µM
  TGI: > 25 µM
NCI-H460 lung
  GI50: 0.185 µM
  TGI: > 25 µM
UO-31 renal
  GI50: > 25 µM
  TGI: > 25 µM
EKVX NSCLC
  GI50: > 25 µM
  TGI: > 25 µM
HCT-116 colon
  GI50: 0.596 µM
  TGI: > 25 µM
SK-OV-3 ovarian
  GI50: 3.32 µM
  TGI: > 25 µM
OVCAR-4 ovarian
  GI50: > 21 µM
  TGI: > 25 µM
OVCAR-3 ovarian
  GI50: 0.682 µM
  TGI: > 25 µM
RPMI-8226 leukemia
  GI50: 0.436 µM
  TGI: > 25 µM
TK-10 renal
  GI50: > 25 µM
  TGI: > 25 µM
NCI-H23 lung
  GI50: 2.24 µM
  TGI: > 25 µM
HS 578T breast
  GI50: 0.673 µM
  TGI: > 25 µM
HT29 colon
  GI50: 0.355 µM
  TGI: > 25 µM
HOP-92 NSCLC
  GI50: > 18.5 µM
  TGI: > 25 µM
RXF 393 renal
  GI50: > 5.16 µM
  TGI: > 25 µM
LOX IMVI melanoma
  GI50: 0.708 µM
  TGI: > 25 µM
NCI-H226 lung
  GI50: > 21.8 µM
  TGI: > 25 µM
UACC-62 melanoma
  GI50: 5.58 µM
  TGI: > 25 µM
K-562 leukemia
  GI50: 1.04 µM
  TGI: > 25 µM
HOP-62 NSCLC
  GI50: 5.13 µM
  TGI: > 25 µM
IGROV1 ovarian
  GI50: 1.29 µM
  TGI: > 25 µM
U251 CNS
  GI50: 1.42 µM
  TGI: > 25 µM
SW-620 colon
  GI50: 0.819 µM
  TGI: > 25 µM
SN12C renal
  GI50: 4.36 µM
  TGI: > 25 µM
SK-MEL-28 melanoma
  GI50: 3.88 µM
  TGI: > 25 µM
OVCAR-8 ovarian
  GI50: 1.57 µM
  TGI: > 25 µM
SK-MEL-2 melanoma
  GI50: 5.65 µM
  TGI: > 25 µM
PC-3 prostate
  GI50: 1.58 µM
  TGI: > 25 µM
ACHN renal
  GI50: > 25 µM
  TGI: > 25 µM
CAKI-1 renal
  GI50: 5.85 µM
  TGI: > 25 µM
MALME-3M melanoma
  GI50: 2.07 µM
  TGI: > 25 µM
CCRF-CEM leukemia
  GI50: 1.25 µM
  TGI: > 25 µM
SK-MEL-5 melanoma
  GI50: 3.13 µM
  TGI: > 25 µM
M14 melanoma
  GI50: 1.09 µM
  TGI: 24.9 µM
HCC-2998 colon
  GI50: 1.26 µM
  TGI: > 25 µM
BT-549 breast
  GI50: 3.71 µM
  TGI: > 25 µM
MDA-MB-435
  GI50: 0.0987 µM
  TGI: 0.398 µM
KM12 colon
  GI50: 0.683 µM
  TGI: > 25 µM
SF-539 CNS
  GI50: 1.2 µM
  TGI: > 25 µM
T-47D breast
  GI50: 1.07 µM
  TGI: > 25 µM
OVCAR-5 ovarian
  GI50: 1.58 µM
  TGI: > 25 µM
A498 renal
  GI50: 1.39 µM
  TGI: > 23.5 µM
SR leukemia
  GI50: 0.862 µM
  TGI: > 25 µM
SF-268 CNS
  GI50: 1.93 µM
  TGI: > 25 µM
UACC-257 melanoma
  GI50: 6.61 µM
  TGI: > 25 µM
MDA-MB-231 breast
  GI50: 4.17 µM
  TGI: > 25 µM
SNB-19 CNS
  GI50: 3.88 µM
  TGI: > 25 µM
NCI-H522 lung
  GI50: 1.81 µM
  TGI: > 25 µM
MCF7 breast
  GI50: 0.348 µM
  TGI: > 25 µM
HL-60(TB) leukemia
  GI50: 0.819 µM
  TGI: > 18.7 µM
HCT-15 colon
  GI50: > 25 µM
  TGI: > 25 µM
DU-145 prostate
  GI50: 0.681 µM
  TGI: > 25 µM
SNB-75 CNS
  GI50: 0.114 µM
  TGI: 1.48 µM
SF-295 CNS
  TGI: > 25 µM
NCI/ADR-RES ovarian
  GI50: > 25 µM
  TGI: > 25 µM
COLO 205 colon
  GI50: 0.665 µM
  TGI: > 10.8 µM

Reference: PubChem BioAssay (NCI)
